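Interpolation was linear, between the two tested concentrations surrounding the appropriate level; five concentrations were tested over 48 hours in 96-well plates. GI50 marks 50% less growth.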 The source made the active and inactive calls. Rule as the data show it: active = GI50 up to about 1.1 µM and inactive = higher.
Key:
Test in all cases: NCI tumour cell line growth inhibition, 48 h
786-0 = system: 786-0
EKVX = system: EKVX
SK-MEL-28 = system: SK-MEL-28
MCF7 = system: MCF7
NCI/ADR-RES = system: NCI/ADR-RES
NCI-H460 = system: NCI-H460
HOP-92 = system: HOP-92
LOX IMVI = system: LOX IMVI
SNB-19 = system: SNB-19
HCC 2998 = system: HCC 2998
MDA-MB-231 = system: MDA-MB-231
IGROV-1 = system: IGROV-1
CCRF-CEM = system: CCRF-CEM
HCT-116 = system: HCT-116
OVCAR-5 = system: OVCAR-5
K562 = system: K562
RXF 393 = system: RXF 393
RPMI-8226 = system: RPMI-8226
OVCAR-3 = system: OVCAR-3

Measured: GI50

CC(=O)Oc1cc2c(n(C)c1=O)CCC2
inactive: 786-0 > 100 µM | EKVX > 100 µM | SK-MEL-28 > 100 µM | MCF7 > 100 µM | NCI/ADR-RES 35.5 µM | NCI-H460 > 100 µM | HOP-92 > 100 µM | LOX IMVI 96.4 µM | SNB-19 > 100 µM | HCC 2998 81.7 µM | MDA-MB-231 > 100 µM | IGROV-1 > 100 µM | CCRF-CEM > 100 µM | HCT-116 > 100 µM | OVCAR-5 > 100 µM | K562 > 100 µM

O=C(CCC(=O)Nc1ccc(Cl)c(Cl)c1)Cc1nc2ccccc2o1
inactive: 786-0 > 100 µM | RXF 393 > 100 µM | EKVX 67.3 µM | SK-MEL-28 > 100 µM | NCI-H460 > 100 µM | HOP-92 > 100 µM | LOX IMVI > 100 µM | SNB-19 > 100 µM | RPMI-8226 > 100 µM | HCC 2998 > 100 µM | IGROV-1 > 100 µM | OVCAR-3 29.3 µM | CCRF-CEM > 100 µM | HCT-116 > 100 µM | OVCAR-5 > 100 µM | K562 > 100 µM

CNC1=C(C)C(=O)C(C)=C(C(C)(C)CC(=O)n2cc(F)c(=O)[nH]c2=O)C1=O
inactive: 786-0 22.6 µM | RXF 393 > 100 µM | EKVX 16.1 µM | SK-MEL-28 > 30.9 µM | NCI-H460 2.99 µM | HOP-92 > 100 µM | LOX IMVI 71 µM | SNB-19 > 65.8 µM | RPMI-8226 6.81 µM | HCC 2998 1.16 µM | IGROV-1 67 µM | OVCAR-3 38.5 µM | CCRF-CEM > 65.3 µM | HCT-116 8.2 µM | OVCAR-5 > 100 µM | K562 32 µM

Cc1cc2cc3c(Cl)c(CCCl)c(C)nc3cc2c(Cl)c1CCCl
inactive: 786-0 24.5 µM | RXF 393 4.33 µM | EKVX 2.87 µM | SK-MEL-28 18 µM | MCF7 26.9 µM | NCI/ADR-RES 22.9 µM | NCI-H460 14.7 µM | HOP-92 13.9 µM | LOX IMVI 15.2 µM | SNB-19 16.4 µM | RPMI-8226 14 µM | HCC 2998 17.5 µM | IGROV-1 26.2 µM | OVCAR-3 13.5 µM | CCRF-CEM 23.4 µM | HCT-116 15.8 µM | K562 17.4 µM

CCCC/C=C/C1Cc2ccccc2CN1S(=O)(=O)c1ccc(C)cc1 (configuration not stated)
inactive: 786-0 12.3 µM | RXF 393 10.8 µM | EKVX 13.7 µM | SK-MEL-28 10.5 µM | NCI-H460 12.7 µM | HOP-92 2.15 µM | LOX IMVI 8.34 µM | SNB-19 24.2 µM | RPMI-8226 2.07 µM | HCC 2998 12.1 µM | IGROV-1 12.3 µM | OVCAR-3 9.57 µM | CCRF-CEM 4.9 µM | HCT-116 1.6 µM | OVCAR-5 12.5 µM | K562 3.64 µM

C=CC[C@@]1(C#N)C[C@H](C[C@]2(C#N)C[C@H](CCl)OC(C)(C)O2)OC(C)(C)O1
inactive: 786-0 > 100 µM | RXF 393 > 100 µM | EKVX > 100 µM | SK-MEL-28 > 100 µM | NCI-H460 > 100 µM | HOP-92 51.9 µM | LOX IMVI > 100 µM | SNB-19 > 100 µM | RPMI-8226 52.5 µM | HCC 2998 > 100 µM | IGROV-1 > 100 µM | OVCAR-3 > 100 µM | CCRF-CEM > 100 µM | HCT-116 55.2 µM | OVCAR-5 > 100 µM | K562 53 µM

From ChEMBL document CHEMBL1201862, “PubChem BioAssay data set” (2004)
